In patent US8461125B2, “Compositions and methods to treat asthma” (The Children's Hospital of Philadelphia, priority 2008, dated 2013):

Legend:
rabbit ASM tissues = assay: Constrictor and relaxation responsiveness in isolated rabbit ASM tissues (organ bath, isometric tension); details: rabbit ASM tissues exposed 24 hr to IgE immune complexes, pretreatment 10 μM
Source text: The following materials and methods are provided to facilitate practice of the present invention: • Materials: All chemicals were purchased from Sigma-Aldrich unless otherwise indicated. The human ASM cells were obtained from BioWhittaker, Inc. • Animals: Adult New Zealand White rabbits were used in this study, which was approved by the Biosafety and Animal Research Committee of the Joseph Stokes Research Institute at Children's Hospital of Philadelphia. The animals had no signs of respiratory disease for several weeks before the study, and their care and use were in accordance with the “Guide for the Care and Use of Laboratory Animals” prepared by the Institute of Laboratory Animal Resources, National Research Council. • Immunization protocol: Rabbits were actively immunized by an intra-peritoneal injection of 1 ml of an emulsion containing ovalbumin (OVA; 2.5 mg in PBS) mixed in equal part with adjuvant, administered each week for 3 weeks and, thereafter, every alternate week for a one month period. Non-immunized rabbits receiving injections with PBS alone served as controls. Thereafter, the rabbits were challenged by airway administration of a 3% solution of OVA. […]

cAMP PDE4 activity = assay: cAMP PDE activity in isolated rabbit ASM tissues after pro-asthmatic sensitization; details: FIG. 7B; rabbit ASM tissues sensitized 24 hr with IgE immune complexes
CD23a mRNA = assay: siRNA-mediated knockdown of CD23a mRNA expression in cultured human ASM cells (RT-PCR); format: cell-based; details: 100 nM each siRNA duplex; for CD23a mRNA expression (constitutive): FIG. 2, human ASM cells, control conditions, Oligofectamine-mediated transfection; for CD23a mRNA expression in IL-13-treated ASM cells / CD23a mRNA expression in vehicle-exposed ASM cells: FIG. 3, Oligofectamine transfection; for CD23a mRNA expression in IL-13-treated ASM cells: human ASM cells exposed 12 hr to IL-13 (50 ng/ml); for CD23a mRNA expression in vehicle-exposed ASM cells: human ASM cells exposed 12 hr to vehicle
Source text: The following materials and methods are provided to facilitate practice of the present invention: • Materials: All chemicals were purchased from Sigma-Aldrich unless otherwise indicated. The human ASM cells were obtained from BioWhittaker, Inc. • Animals: Adult New Zealand White rabbits were used in this study, which was approved by the Biosafety and Animal Research Committee of the Joseph Stokes Research Institute at Children's Hospital of Philadelphia. The animals had no signs of respiratory disease for several weeks before the study, and their care and use were in accordance with the “Guide for the Care and Use of Laboratory Animals” prepared by the Institute of Laboratory Animal Resources, National Research Council. • Immunization protocol: Rabbits were actively immunized by an intra-peritoneal injection of 1 ml of an emulsion containing ovalbumin (OVA; 2.5 mg in PBS) mixed in equal part with adjuvant, administered each week for 3 weeks and, thereafter, every alternate week for a one month period. Non-immunized rabbits receiving injections with PBS alone served as controls. Thereafter, the rabbits were challenged by airway administration of a 3% solution of OVA. […] Approximately 40 ml of blood was then drawn via an ear vein from each of the immunized and control rabbits for preparation of asthmatic and non-asthmatic serum samples to be used for subsequent passive sensitization of ASM tissue segments isolated from naïve rabbits, as described below. • siRNA-mediated knockdown of CD23 in cultured ASM cells: Human ASM cells were grown in SmBm media supplemented with 10% FBS (BioWhittaker) and maintained throughout in a humidified incubator containing 5% CO2 in air at 37° C. The experimental protocols involved seeding the cells into 6-well plates and, at ˜40% confluency, the medium was replaced with the reduced serum-containing medium, Opti-MEM (Invitrogen). Separate preparations of cells were then transfected twice during a 24-hr interval with each of four different siRNA duplexes targeted against human CD23, using Oligofectamine (Invitrogen) as the transfection agent. The siRNA preparations were purchased from Applied Biosystems and comprised the following nucleotide sequences:
Additionally, cell preparations were also transfected with either a pool of these CD23-directed siRNA duplexes, a non-targeted negative control (scrambled) siRNA duplex, or a negative control duplex labeled with the […], Cy™3, to visualize siRNA transfection efficiency. The siRNAs were applied to each well at a final concentration of 100 nM for each siRNA duplex. After 3 days, the cells were exposed for 12 hr to either vehicle alone or the pro-asthmatic cytokine, IL-13 (50 ng/ml), which is known to upregulate CD23 expression in human monocytes. The cells were subsequently examined for induced changes in mRNA expression of CD23a. • Detection of CD23 mRNA transcripts: Total RNA was extracted from the cultured ASM cells using the TRIzol method (Invitrogen), and cDNAs were isolated by RT-PCR using the SuperScript First Strand Synthesis System kit from Invitrogen, with the following oligonucleotide primer sets (Integrated DNA Technologies): for CD23a, (SEQ ID NO: 11) 5′-[…]-3′ (forward) and (SEQ ID NO: 12) 5′-[…]-3′ (reverse); and for β-actin, (SEQ ID NO: 13) 5′-[…]-3′ (forward) and (SEQ ID NO: 14) 5′-[…]-3′ (reverse). The reaction volume was 20 μl and cycling conditions used were 35 cycles of 30 sec denaturation at 95° C., followed by 30 sec annealing at 60° C. and elongation at 72° C. for 30 sec. Ex-Tag (Takara Biotechnology) was used as DNA polymerase. • Pharmacodynamic studies of constrictor and relaxation responsiveness in rabbit ASM tissues: Following initial sedation and subsequent general anesthesia with intramuscular injections of xylazine (10 mg/kg) and ketamine (50 mg/kg), respectively, rabbits were sacrificed with an intravenously administered overdose of sodium pentobarbital (100 mg/kg). […]

Row | Compound | Induced pro-asthmatic change in constrictor responsiveness to ACh (rabbit ASM tissues; FIG. 5A) | Induced pro-asthmatic change in relaxation responsiveness to isoproterenol (rabbit ASM tissues; FIG. 5B) | Induced upregulation of cAMP PDE4 activity (cAMP PDE4 activity) | CD23a mRNA expression (constitutive) (CD23a mRNA) | CD23a mRNA expression in IL-13-treated ASM cells (CD23a mRNA) | CD23a mRNA expression in vehicle-exposed ASM cells (CD23a mRNA) | CD23a mRNA expression (constitutive) (CD23a mRNA; listed as 106645) | CD23a mRNA expression (constitutive) (CD23a mRNA; listed as 111060)
1 | COc1ccc(C2CNC(=O)C2)cc1OC1CCCC1 (centres unmarked) [rolipram] | prevented | prevented | inhibitory effect |  |  |  |  | 
2 | #106644: siRNA duplex against human CD23 (Applied Biosystems): sense 5′-GGAGGUGACAAAGCUAAGGtt-3′, antisense 5′-CCUUAGCUUUGUCACCUCCtc-3′ (sense GGAGGUGACAAAGCUAAGGTT; antisense CCUUAGCUUUGUCACCUCCTC; chemistry not given here) |  |  |  | no effect | no effect | no effect |  | 
3 | #106645: siRNA duplex against human CD23 (Applied Biosystems): sense 5′-GGUGACAAAGCUAAGGAUGtt-3′, antisense 5′-CAUCCUUAGCUUUGUCACCtc-3′ (sense GGUGACAAAGCUAAGGAUGTT; antisense CAUCCUUAGCUUUGUCACCTC; chemistry not given here) |  |  |  | distinctly inhibited | markedly inhibited | markedly inhibited | marked inhibition | 
4 | #111060: siRNA duplex against human CD23 (Applied Biosystems): sense 5′-GGAAUUGAACGAGAGGAACtt-3′, antisense 5′-GUUCCUCUCGUUCAAUUCCtg-3′ (sense GGAAUUGAACGAGAGGAACTT; antisense GUUCCUCUCGUUCAAUUCCTG; chemistry not given here) |  |  |  | distinctly inhibited | markedly inhibited | markedly inhibited |  | marked inhibition
5 | #111062: siRNA duplex against human CD23 (Applied Biosystems): sense 5′-CGAAGCUUCAGAUUUGCUGtt-3′, antisense 5′-CAGCAAAUCUGAAGCUUCGtt-3′ (sense CGAAGCUUCAGAUUUGCUGTT; antisense CAGCAAAUCUGAAGCUUCGTT; chemistry not given here) |  |  |  | no effect | no effect | no effect |  | 
